Tests used:
Type in all cases: in vivo
[1] = system: ryegrass, Italian (Italian ryegrass, Lolium multiflorum); assay: Test A preemergence
In short: (§1)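 Ratings of 0 (no effect) to 100 (complete control) come from visual comparison with untreated controls roughly 10 d after treatment. Test chemicals, formulated in a non-phytotoxic solvent mixture with surfactant, were applied either as a preemergence directed soil spray on seeded soil or postemergence to one- to two-leaf plants 2 to 10 cm tall.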

[2] = system: pigweed (Amaranthus retroflexus); assay: Test A preemergence
[3] = system: ragweed (common ragweed, Ambrosia elatior); assay: Test A preemergence
In short: as §1

[4] = system: Kochia (Kochia scoparia); assay: Test A preemergence
In short: as §1

[5] = system: giant foxtail (Setaria faberii); assay: Test A preemergence
In short: as §1

[6] = system: barnyardgrass (Echinochloa crus-galli); assay: Test A preemergence
In short: as §1

[7] = system: ducksalad (Heteranthera limosa); assay: Test B flooded paddy test; settings: Flood, 250 g ai/ha; for Plant response rating, Ducksalad: 0 to 100 scale where 0 is no effect and 100 is complete control, 13 to 15 d
In short: (§2)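 Compound goes directly into floodwater once pots are flooded 3 cm above soil, targeting plants at two leaves; the water depth is then held for the test duration. Plants sit 13–15 d in a greenhouse and are rated visually, 100 denoting complete control.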

[8] = system: rice (Oryra sativa); assay: Test B flooded paddy test; settings: Flood, 250 g ai/ha; for Plant response rating, Rice: 0 to 100 scale where 0 is no effect and 100 is complete control, 13 to 15 d
In short: as §2

[9] = system: barnyardgrass (Echinochloa crus-galli); assay: Test B flooded paddy test; settings: Flood, 250 g ai/ha; for Plant response rating, Barnyardgrass: 0 to 100 scale where 0 is no effect and 100 is complete control, 13 to 15 d
In short: as §2

[10] = system: sedge, umbrella (small-flower umbrella sedge, Cyperus difformis); assay: Test B flooded paddy test; settings: Flood, 250 g ai/ha; for Plant response rating, Sedge, Umbrella: 13 to 15 d
In short: as §2

[11] = system: ryegrass, Italian (Italian ryegrass, Lolium multiflorum); assay: Test A postemergence
In short: as §1

[12] = system: corn (Zea mays); assay: Test A postemergence
In short: as §1

[13] = system: pigweed (Amaranthus retroflexus); assay: Test A postemergence
In short: as §1

[14] = system: ragweed (common ragweed, Ambrosia elatior); assay: Test A postemergence
In short: as §1

[15] = system: Kochia (Kochia scoparia); assay: Test A postemergence
In short: as §1

[16] = system: giant foxtail (Setaria faberii); assay: Test A postemergence
In short: as §1

[17] = system: barnyardgrass (Echinochloa crus-galli); assay: Test A postemergence
In short: as §1

[18] = system: blackgrass (Alopecurus myosuroides); assay: Test A postemergence
In short: as §1

[19] = system: wheat (Triticum aestivum); assay: Test A postemergence
In short: as §1

[20] = system: Galium (catchweed bedstraw, Galium aparine); assay: Test A postemergence
In short: as §1

[21] = 125 g ai/ha, Preemergence, visual injury after approximately 10 d, 0 to 100 scale where 0 is no effect and 100 is complete control
[22] = 500 g ai/ha, preemergence, 0 to 100 scale, 0 = no effect, 100 = complete control
[23] = 0 to 100 scale where 0 is no effect and 100 is complete control
[24] = 125 g ai/ha, postemergence, visual rating after approx. 10 d, 0 to 100 scale (0 no effect, 100 complete control)
[25] = 500 g ai/ha, postemergence, visual injury, 0 to 100 scale (0 no effect, 100 complete control), approx. 10 d
[26] = 125 g ai/ha, Preemergence, visual injury rating after approximately 10 d
[27] = 500 g ai/ha, preemergence, visual injury rating about 10 d after treatment, 0 to 100 scale (0 no effect, 100 complete control)
[28] = scale of 0 to 100 where 0 is no effect and 100 is complete control
[29] = 125 g ai/ha, Postemergence, visual injury after approximately 10 d, 0 to 100 scale where 0 is no effect and 100 is complete control
[30] = 500 g ai/ha, preemergence, 0 to 100 scale (0 no effect, 100 complete control)
[31] = Preemergence, 125 g ai/ha, 0 to 100 scale (0 no effect, 100 complete control)
[32] = visually evaluated after 13 to 15 d
[33] = Postemergence, 125 g ai/ha, visual injury after approx. 10 d, 0 to 100 scale, 0 no effect, 100 complete control
[34] = Postemergence, 500 g ai/ha, visual injury, 0 to 100 scale (0 no effect, 100 complete control), approx. 10 d

Cc1ccc(C2CNC(=O)C2C(=O)Nc2cccc(F)c2F)cc1C(F)(F)F (centres unmarked) [Compound 642]
50: Plant response rating, Ryegrass, Italian [1, 21] | Plant response rating, Pigweed [2, 21] | Plant response rating, Ragweed [3, 22] | Plant response rating, Ryegrass, Italian [11, 25] | Plant response rating, Corn [12, 24] | Plant response rating, Kochia [15, 25] | Plant response rating, Galium [20, 24]
0: Plant response rating, Ragweed [3, 21] | Plant response rating, Sedge, Umbrella [10, 23] | Plant response rating, Pigweed [13, 24] | Plant response rating, Ragweed [14, 24] | Plant response rating, Wheat [19, 24]
100: Plant response rating, Ducksalad [7]
60: Plant response rating, Pigweed [2, 22] | Plant response rating, Kochia [4, 22]
70: Plant response rating, Corn [12, 25] | Plant response rating, Foxtail, Giant [16, 25] | Plant response rating, Barnyardgrass [17, 24] | Plant response rating, Galium [20, 25]
80: Plant response rating, Ryegrass, Italian [1, 22]
20: Plant response rating, Pigweed [13, 25] | Plant response rating, Kochia [15, 24] | Plant response rating, Foxtail, Giant [16, 24] | Plant response rating, Blackgrass [18, 24] | Plant response rating, Wheat [19, 25]
30: Plant response rating, Rice [8] | Plant response rating, Barnyardgrass [9]
90: Plant response rating, Foxtail, Giant [5, 21] | Plant response rating, Foxtail, Giant [5, 22] | Plant response rating, Barnyardgrass [6, 21] | Plant response rating, Barnyardgrass [6, 22] | Plant response rating, Barnyardgrass [17, 25]
40: Plant response rating, Kochia [4, 21] | Plant response rating, Ryegrass, Italian [11, 24] | Plant response rating, Ragweed [14, 25] | Plant response rating, Blackgrass [18, 25]

CN1CC(c2cc(F)cc(F)c2)C(C(=O)Nc2ccccc2C(F)(F)F)C1=O (centres unmarked) [Compound 647]
100: Plant response rating, Foxtail, Giant [5, 22]
75: Plant response rating, Barnyardgrass [9]
60: Plant response rating, Pigweed [2, 22] | Plant response rating, Blackgrass [18, 25]
50: Plant response rating, Wheat [19, 25] | Plant response rating, Galium [20, 25]
0: Plant response rating, Pigweed [2, 21] | Plant response rating, Ragweed [3, 21] | Plant response rating, Kochia [4, 21] | Plant response rating, Kochia [4, 22] | Plant response rating, Sedge, Umbrella [10, 23] | Plant response rating, Ryegrass, Italian [11, 24] | Plant response rating, Ryegrass, Italian [11, 25] | Plant response rating, Pigweed [13, 24] | Plant response rating, Pigweed [13, 25] | Plant response rating, Ragweed [14, 24] | Plant response rating, Kochia [15, 24]
90: Plant response rating, Foxtail, Giant [5, 21] | Plant response rating, Barnyardgrass [6, 21] | Plant response rating, Barnyardgrass [6, 22] | Plant response rating, Ducksalad [7] | Plant response rating, Foxtail, Giant [16, 24] | Plant response rating, Foxtail, Giant [16, 25] | Plant response rating, Barnyardgrass [17, 25]
30: Plant response rating, Ryegrass, Italian [1, 21] | Plant response rating, Ryegrass, Italian [1, 22]
80: Plant response rating, Barnyardgrass [17, 24]
40: Plant response rating, Ragweed [3, 22] | Plant response rating, Rice [8] | Plant response rating, Corn [12, 25]
20: Plant response rating, Kochia [15, 25] | Plant response rating, Blackgrass [18, 24] | Plant response rating, Wheat [19, 24] | Plant response rating, Galium [20, 24]
10: Plant response rating, Corn [12, 24] | Plant response rating, Ragweed [14, 25]

CC(C)Oc1cccc(C2CN(C)C(=O)C2C(=O)Nc2ccccc2C(F)(F)F)c1 (centres unmarked) [Compound 652]
0: Plant response rating, Pigweed [2, 21] | Plant response rating, Ragweed [3, 21] | Plant response rating, Ragweed [3, 22] | Plant response rating, Kochia [4, 21] | Plant response rating, Rice [8] | Plant response rating, Sedge, Umbrella [10, 23] | Plant response rating, Pigweed [13, 24] | Plant response rating, Ragweed [14, 24] | Plant response rating, Ragweed [14, 25] | Plant response rating, Kochia [15, 24] | Plant response rating, Kochia [15, 25] | Plant response rating, Wheat [19, 24]
90: Plant response rating, Barnyardgrass [6, 21] | Plant response rating, Barnyardgrass [6, 22] | Plant response rating, Foxtail, Giant [16, 25] | Plant response rating, Barnyardgrass [17, 24] | Plant response rating, Barnyardgrass [17, 25]
30: Plant response rating, Pigweed [2, 22] | Plant response rating, Kochia [4, 22] | Plant response rating, Corn [12, 24] | Plant response rating, Galium [20, 24]
70: Plant response rating, Ryegrass, Italian [11, 25] | Plant response rating, Blackgrass [18, 25]
40: Plant response rating, Barnyardgrass [9] | Plant response rating, Wheat [19, 25]
80: Plant response rating, Foxtail, Giant [16, 24]
20: Plant response rating, Pigweed [13, 25]
50: Plant response rating, Ryegrass, Italian [11, 24] | Plant response rating, Galium [20, 25]
100: Plant response rating, Foxtail, Giant [5, 21] | Plant response rating, Foxtail, Giant [5, 22]
60: Plant response rating, Ryegrass, Italian [1, 21] | Plant response rating, Ryegrass, Italian [1, 22] | Plant response rating, Corn [12, 25] | Plant response rating, Blackgrass [18, 24]
65: Plant response rating, Ducksalad [7]

Cc1ccc([C@H]2CN(C)C(=O)[C@@H]2C(=O)Nc2ccccc2[S+](C)[O-])cc1F (some centres unmarked) [Compound 988]
0: Ryegrass, Italian plant response rating (0 to 100 scale, 0 is no effect, 100 is complete control) [1, 26] | Sedge, Umbrella plant response rating [10, 23] | Plant response rating, Pigweed [13, 29] | Plant response rating, Ragweed [14, 29]
80: Ragweed plant response rating [3, 27] | Kochia plant response rating [4, 27] | Plant response rating, Foxtail, Giant [16, 29] | Plant response rating, Barnyardgrass [17, 29]
90: Foxtail, Giant plant response rating (0 to 100 scale, 0 is no effect, 100 is complete control) [5, 26] | Foxtail, Giant plant response rating [5, 27] | Barnyardgrass plant response rating (0 to 100 scale, 0 is no effect, 100 is complete control) [6, 26] | Barnyardgrass plant response rating [6, 27]
50: Ragweed plant response rating (0 to 100 scale, 0 is no effect, 100 is complete control) [3, 26] | Plant response rating, Galium [20, 29]
40: Pigweed plant response rating [2, 27]
10: Plant response rating, Kochia [15, 29]
75: Barnyardgrass plant response rating [9, 28]
100: Ducksalad plant response rating [7, 28]
30: Pigweed plant response rating (0 to 100 scale, 0 is no effect, 100 is complete control) [2, 26] | Kochia plant response rating (0 to 100 scale, 0 is no effect, 100 is complete control) [4, 26] | Plant response rating, Blackgrass [18, 29] | Plant response rating, Wheat [19, 29]
20: Ryegrass, Italian plant response rating [1, 27] | Rice plant response rating [8, 28] | Plant response rating, Ryegrass, Italian [11, 29] | Plant response rating, Corn [12, 29]

O=C(Nc1cccc(F)c1F)C1C(=S)NCC1c1ccc(Cl)cc1 (centres unmarked) [Compound 1387]
0: Plant response rating, Ryegrass, Italian [1, 30] | Plant response rating, Ryegrass, Italian [1, 31] | Plant response rating, Pigweed [2, 31] | Plant response rating, Ragweed [3, 30] | Plant response rating, Ragweed [3, 31] | Plant response rating, Ducksalad (0 to 100 scale where 0 is no effect and 100 is complete control) [7, 32] | Plant response rating, Rice (0 to 100 scale where 0 is no effect and 100 is complete control) [8, 32] | Plant response rating, Barnyardgrass (0 to 100 scale where 0 is no effect and 100 is complete control) [9, 32] | Plant response rating, Sedge, Umbrella (0 to 100 scale where 0 is no effect and 100 is complete control) [10, 32] | Plant response rating, Ryegrass, Italian [11, 33] | Plant response rating, Corn [12, 33] | Plant response rating, Pigweed [13, 33] | Plant response rating, Ragweed [14, 33] | Plant response rating, Kochia [15, 33] | Plant response rating, Blackgrass [18, 33] | Plant response rating, Wheat [19, 33] | Plant response rating, Wheat [19, 34]
40: Plant response rating, Ryegrass, Italian [11, 34] | Plant response rating, Blackgrass [18, 34]
80: Plant response rating, Foxtail, Giant [5, 31] | Plant response rating, Foxtail, Giant [16, 34] | Plant response rating, Barnyardgrass [17, 34]
60: Plant response rating, Pigweed [2, 30] | Plant response rating, Kochia [4, 30] | Plant response rating, Pigweed [13, 34] | Plant response rating, Foxtail, Giant [16, 33] | Plant response rating, Barnyardgrass [17, 33]
90: Plant response rating, Foxtail, Giant [5, 30] | Plant response rating, Barnyardgrass [6, 30]
10: Plant response rating, Corn [12, 34]
50: Plant response rating, Barnyardgrass [6, 31] | Plant response rating, Kochia [15, 34] | Plant response rating, Galium [20, 34]
30: Plant response rating, Kochia [4, 31] | Plant response rating, Ragweed [14, 34] | Plant response rating, Galium [20, 33]
